Source: ChEMBL document CHEMBL4024745, “Causes and Significance of Increased Compound Potency in Cellular or Physiological Contexts” (J Med Chem, 2018)

How the values were obtained:
[1] = Drug metabolism in human ZR-75B cells assessed as polyglutamylation of compound at 2 uM after 24 hrs by liquid scintillation counting method; assay type: ADME, cell-based; conditions: read-out: Drug metabolism
[2] = Drug metabolism in human MCF7 cells assessed as polyglutamylation of compound at 2 uM after 24 hrs by liquid scintillation counting method; assay type: ADME, cell-based; conditions: read-out: Drug metabolism
[3] = Drug metabolism in human MDA231 cells assessed as polyglutamylation of compound at 2 uM after 24 hrs by liquid scintillation counting method; assay type: ADME, cell-based; conditions: MDA231 (MDA-MB-231) cells, read-out: Drug metabolism
Bacterial 70S ribosome = experiment: Binding affinity to Escherichia coli A19 70S ribosome after 30 mins by scintillation counting method
[4] = Binding affinity to Escherichia coli A19 50S ribosome after 30 mins by scintillation counting method
[5] = Binding affinity to Escherichia coli MRE600 50S ribosome after 80 hrs by equilibrium dialysis method
[6] = Binding affinity to Escherichia coli MRE600 50S ribosome after 10 mins by radioligand binding assay
[7] = Inhibition of coupled transcription-translation in Escherichia coli UC6782 […] using ortho-nitrophenyl-beta-galactoside as substrate after 30 mins by spectrophotometry

CN(Cc1cnc2nc(N)nc(N)c2n1)c1ccc(C(=O)N[C@@H](CCC(=O)O)C(=O)O)cc1 [METHOTREXATE]
metabolised at 24 h, 2 µM [1]: 87.6%
metabolised at 24 h, 2 µM [2]: 55.4%
metabolised at 24 h, 2 µM [3]: 32%

COC[C@H]1O[C@@H](O[C@@H]2OC[C@@H]3O[C@@]4(OC[C@@H](OC(=O)c5c(C)cc(O)cc5O)[C@@H]5OCO[C@H]54)O[C@H]3[C@H]2O)[C@@H](OC)[C@@H](O)[C@@H]1O[C@@H]1O[C@H](C)[C@H](OC)[C@H](O[C@@H]2O[C@H](C)[C@H]3O[C@]4(C[C@@H](O)[C@H](O[C@H]5C[C@@H](O[C@H]6C[C@](C)([N+](=O)[O-])[C@@H](OC)[C@H](C)O6)[C@H](OC(=O)c6c(C)c(Cl)c(O)c(Cl)c6OC)[C@@H](C)O5)[C@@H](C)O4)O[C@]3(C)[C@@H]2O)[C@H]1O [EVERNIMICIN]
Kd (Bacterial 70S ribosome): 0.084 µM
Kd [4]: 0.16 µM

CCC[C@@H]1C[C@@H](C(=O)N[C@@H]([C@H]2O[C@H](SC)[C@H](O)[C@@H](O)[C@H]2O)[C@@H](C)O)N([14CH3])C1
Kd [5]: 34 µM

CC(=O)NC[C@H]1CN(c2ccc(N3CCN(C(=O)CO)CC3)c(F)c2)C(=O)O1 [EPEREZOLID]
IC50 [6]: 20 µM
IC50 [7]: 1.8 µM
